# Test results reported in patent US6333313A, “Clinical use of oxytocin alone or in combination to treat bone disorders” (Board of Regents, The University of Texas System, priority 1999, dated 2001).
# Starred links: 1 amine or outer side, 2 acyl side, 3 side chain; linkers in the order of their positions; H or OH if unused. Positions of bridges follow the written chain, without caps; N, C: chain ends. Non-standard residues stand in square brackets, D forms with d. Residues, ends and D or L forms follow the SMILES beside them. No end group written: not given here. X1 = O=C(CC1(S[*:2])CCCCC1)[*:1]; Orn = NCCC[C@H](N)C(=O)O
# T1: OTR (Homo sapiens, UniProt P30559)
# T1 sequence (P30559 1-389): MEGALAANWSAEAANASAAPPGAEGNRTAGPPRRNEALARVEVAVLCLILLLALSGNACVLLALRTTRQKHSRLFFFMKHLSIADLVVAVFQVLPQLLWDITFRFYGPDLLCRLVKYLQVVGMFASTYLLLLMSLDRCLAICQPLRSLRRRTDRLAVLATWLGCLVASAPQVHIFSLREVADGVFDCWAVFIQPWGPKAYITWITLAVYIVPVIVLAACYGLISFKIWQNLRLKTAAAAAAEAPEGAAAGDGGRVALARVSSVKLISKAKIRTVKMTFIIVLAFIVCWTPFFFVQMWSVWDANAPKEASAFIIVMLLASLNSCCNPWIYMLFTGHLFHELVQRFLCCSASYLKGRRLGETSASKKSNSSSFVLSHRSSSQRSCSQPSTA
# B1: Parathyroid Hormone: parathyroid hormone (protein, UniProt P01270 32-115, looked up)
# Parathyroid hormone: SVSEIQLMHNLGKHLNSMERVEWLRKKLQDVHNFVALGAPLAPRDAGSQRPRKKEDNVLVESHEKSLGEADKADVNVLTKAKSQ
# modifications: Parathyroid hormone
# B2: Osteogenic Protein-1: osteogenic protein-1 (protein, UniProt P18075 293-431, looked up)
# Bone morphogenetic protein 7: STGSKQRSQNRSKTPKNQEALRMANVAENSSSDQRQACKKHELYVSFRDLGWQDWIIAPEGYAAYYCEGECAFPLNSYMNATNHAIVQTLVHFINPETVPKPCCAPTQLNAISVLYFDDSSNVILKKYRNMVVRACGCH
# Assays:
# [1] = system: bone formation; conditions: in vivo, high dose; cited from earlier work
# [2] = system: bone; uterus; conditions: rats; compared with estradiol; cited from earlier work
# [3] = target: T1, OTR; experiment: Intracellular calcium levels, Saos-2 cells; format: cell-based; conditions: 10 nM OT
# Description: (§1) FIG. 3A, FIG. 3B and FIG. 3C Intracellular calcium transients after 10 nM oxytocin treatment. (FIG. 3A.) Undifferentiated osteoblastic cells; (FIG. 3B.) differentiated osteoblastic cells; and (FIG. 3C.) Saos-2 cells. Cells were incubated at 37C and treated in the following manner; 100 nM OTA for 1 min, […], wash cells 3 times to remove bound antagonist, 10 min recovery, and then 10 nM OT treatment.
# (§2) Cell Culture Conditions: Human osteosarcoma cells (Saos-2) cells were obtained from the ATCC (Rockville, Md.). Human osteoblasts (Cheng et al., 1994; Civitelli et al., 1993) were prepared from explants of cultured rib trabecular. These cells were grown in mineralizing media consisting of DMEM supplemented with 10% fetal bovine serum (FBS), 2% penicillin/streptomycin, dexamethasone (100 nM), ascorbate (50 μg/ml, and β3-glycerophosphate (10 μg/ml) in a humidified tissue culture incubator at 37C under an atmosphere of 5% CO2 and 95% air. These conditions accelerate the osteoblastic modulation of undifferentiated human trabecular bone cells and the production of osteogenic mineralizeable collagen matrix (Cheng et al., Civitelli et al., 1993). To retain undifferentiated osteoblastic phenotype, cells were cultured in the absence of dexamethasone, ascorbate, and β-glycerophosphate. […]
# [4] = system: Undifferentiated and differentiated osteoblastic cells; experiment: PGE2 levels in media of OT-stimulated cells (EIA); format: cell-based, human; conditions: 100 nM OT, over nontreated controls
# Description: FIG. 4A and FIG. 4B PGE2 levels in media of cells stimulated with 100 nM OT. (FIG. 4A.) Undifferentiated osteoblastic cells and (FIG. 4B.) differentiated osteoblastic cells. Each point is the mean +/- SE of triplicates. * indicates P<0.05 compared to matched basal control.
# Prostaglandin E2 (PGE2) levels. PGE2 levels in media were measured using a PGE2 enzyme immunoassay (EIA) system from Amersham Life Sciences (Arlington Heights, Ill.) as previously described (Copland, et al., 1999). The sensitivity of the assay was 2.5 pg/ml with an intraassay coefficient of variation of 6.3% and the interassay coefficient of variation of 6.9%.
# Undifferentiated and differentiated osteoblastic cells were tested to determine whether OT could stimulate PGE2 synthesis. Undifferentiated osteoblastic cells that were allowed to come to confluence and maintained for 2 weeks in either 10% FBS/DMEM or in mineralizing medium (differentiated osteoblast), synthesized and released PGE2 into the media in response to 100 nM OT (FIG. 4A and FIG. 4B, respectively).
# [5] = target: T1, OTR; experiment: Intracellular calcium levels, differentiated osteoblastic cells; format: cell-based; set-up: Undifferentiated or differentiated human trabecular bone cells with osteogenic capacity in primary culture express oxytocin receptors (OTRs); endogenous in cells; host or cells: primary human osteoblastic cells from rib trabecular bone explants (undifferentiated, or differentiated in mineralizing medium); conditions: 10 nM OT
# Description: as §1, §2
# [6] = target: T1, OTR; experiment: Intracellular calcium levels, undifferentiated osteoblastic cells; format: cell-based; set-up: Undifferentiated or differentiated human trabecular bone cells with osteogenic capacity in primary culture express oxytocin receptors (OTRs); endogenous in cells; host or cells: primary human osteoblastic cells from rib trabecular bone explants (undifferentiated, or differentiated in mineralizing medium); conditions: 10 nM OT
# Description: as §1, §2
# [7] = target: T1, OTR; experiment: Whole cell OTR ligand binding, Scatchard analysis, undifferentiated osteoblastic cells; set-up: Undifferentiated or differentiated human trabecular bone cells with osteogenic capacity in primary culture express oxytocin receptors (OTRs); endogenous in cells; host or cells: primary human osteoblastic cells from rib trabecular bone explants (undifferentiated, or differentiated in mineralizing medium); conditions: +/- SE
# Description: (§3) Cell Culture Conditions: Human osteosarcoma cells (Saos-2) cells were obtained from the ATCC (Rockville, Md.). Human osteoblasts (Cheng et al., 1994; Civitelli et al., 1993) were prepared from explants of cultured rib trabecular. These cells were grown in mineralizing media consisting of DMEM supplemented with 10% fetal bovine serum (FBS), 2% penicillin/streptomycin, dexamethasone (100 nM), ascorbate (50 μg/ml, and β3-glycerophosphate (10 μg/ml) in a humidified tissue culture incubator at 37C under an atmosphere of 5% CO2 and 95% air. These conditions accelerate the osteoblastic modulation of undifferentiated human trabecular bone cells and the production of osteogenic mineralizeable collagen matrix (Cheng et al., Civitelli et al., 1993). To retain undifferentiated osteoblastic phenotype, cells were cultured in the absence of dexamethasone, ascorbate, and β-glycerophosphate. Osteoblast phenotype was verified by alkaline phosphatase activity and mineralization of the extracellular matrix using von Kossa staining. The cells were used on the first passage following initial plating.
# (§4) Determination of OTR ligand binding: OTA was monoiodinated as previously described (Hinko and Soloff, 1992). […] The concentration of cellular DNA was determined in parallel, using the Hoechst dye H 33258 and a Hoefer DyNA Quant fluorometer according to the manufacturer's instructions.
# [8] = target: T1, OTR; experiment: Whole cell OTR ligand binding, Scatchard analysis, differentiated osteoblastic cells; set-up: Undifferentiated or differentiated human trabecular bone cells with osteogenic capacity in primary culture express oxytocin receptors (OTRs); endogenous in cells; host or cells: primary human osteoblastic cells from rib trabecular bone explants (undifferentiated, or differentiated in mineralizing medium)
# Description: as §3, §4
# [9] = target: T1, OTR; experiment: Whole cell OTR ligand binding, Scatchard analysis, Saos-2 cells; set-up: Undifferentiated or differentiated human trabecular bone cells with osteogenic capacity in primary culture express oxytocin receptors (OTRs); endogenous in cells; host or cells: primary human osteoblastic cells from rib trabecular bone explants (undifferentiated, or differentiated in mineralizing medium)
# Description: as §3, §4
# [10] = system: cortical bone; conditions: injections with mild exercise; old female rats; cited from earlier work
# [11] = system: bone formation; conditions: systemic administration; cited from earlier work
# [12] = system: rat osteogenic cells; conditions: in vitro; cited from earlier work
# [13] = system: cortical bone; conditions: ovariectomized rats; cited from earlier work
# [14] = system: bone formation; conditions: in vivo; cited from earlier work
# [15] = system: rat osteoblastic cell; conditions: combined with insulin-like growth factor-1; cited from earlier work
molecule,measurement,setting,value
"C=C1/C(=C\C=C2/CCC[C@]3(C)[C@@H]([C@H](C)CCCC(C)(C)O)CC[C@@H]23)C[C@@H](O)C[C@@H]1O [1,25 dihydroxyvitamin D3]",bone formation,[1],stimulates bone formation
"Oc1ccc2c(c1)CC[C@H](c1ccccc1)[C@@H]2c1ccc(OCCN2CCCC2)cc1 [CP-336,156]",uterine-stimulating effects,[2],without the uterine-stimulating effects associated with estradiol
"CC[C@H](C)[C@@H]1NC(=O)[C@H](Cc2ccc(O)cc2)NC(=O)[C@@H](N)CSSC[C@@H](C(=O)N2CCC[C@H]2C(=O)N[C@@H](CC(C)C)C(=O)NCC(N)=O)NC(=O)[C@H](CC(N)=O)NC(=O)[C@H](CCC(N)=O)NC1=O [OT, oxytocin]",rise in [Ca2+]i,[3],responded within seconds to OT treatment with a rise in [Ca^2+ ]i
same,increase in PGE2 synthesis,[4]; 15 and 30 minutes,2 fold
same,increase in PGE2 synthesis,[4]; by 1 h of OT stimulation,4-6 fold
same,rise in [Ca2+]i,[5],responded within seconds to OT treatment with a rise in [Ca^2+ ]i
same,rise in [Ca2+]i,[6],responded within seconds to OT treatment with a rise in [Ca^2+ ]i
CC[C@H](C)[C@@H]1NC(=O)[C@H](Cc2ccc(OC)cc2)NC(=O)CC2(CCCCC2)SSC[C@@H](C(=O)N2CCC[C@H]2C(=O)N[C@@H](CCCN)C(=O)N[C@@H](Cc2ccc(O)cc2)C(N)=O)NC(=O)[C@H](CC(N)=O)NC(=O)[C@H]([C@@H](C)O)NC1=O [{^125 I]OTA] (Y(Me)ITNCP[Orn]Y-NH2; linker N-5 via X1),Bmax,[7],5.7+/-0.8 fmol/10 μg DNA
same,Kd,[7]; read-out: apparent Kd,0.132 ± 0.027 nM
same,Bmax,[8],12.3+/-1.4 fmol/10 μg DNA
same,Kd,[8]; read-out: apparent Kd,0.175 ± 0.034 nM
same,Bmax,[9],24.6+/-3.2 fmol/10 μg DNA
same,Kd,[9]; read-out: apparent Kd,0.15 ± 0.028 nM
Growth Hormone: growth hormone injections,formation and strength of cortical bone,[10],increase the formation and strength of cortical bone
IGF-1/IGF BP-3: insulin-like growth factor-1 combined with insulin-like growth factor binding protein-3,effect of IGF-1 on bone formation when combined with IGF BP-3,[11],potentiated
"substance P: a neuropeptide with wide distribution in central and peripheral nervous system (RPKPQQFFGLM; ends and bridges not checked; UniProt P20366 58-68, looked up)",cell proliferation,[12],increased cell proliferation in a dose dependent fashion
B1,femoral length and strength in cortical bone,[13],dose dependent increase
B2,new bone formation,[14],induces new bone formation
same,stimulation of rat osteoblastic cell differentiation and proliferation,[15],synergistic with insulin-like growth factor-1
